Measured values taken from patent US20240391936A1, “TETRAHYDROTHIENO PYRIDINE DERIVATIVES AS DDRS INHIBITORS” (CHIESI FARMACEUTICI S.P.A., priority 2021, published 2024).

How the values were obtained:
DDR1 [1] = biological target: T1, DDR1 (Homo sapiens, UniProt Q08345); test: DDR1 binding assay (LanthaScreen Europium Kinase Binding assay); set-up: purchased Carna Biosciences; details: binding assay, 5 nM DDR1, 20 nM Kinase Tracer 178; Ki from IC50 by Cheng-Prusoff; read-out: Ki DDR1
How it was run: (§1)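 TR-FRET tracer-displacement format: 665/615 nm emission ratio (340 nm excitation) gave IC50 by 4-parameter fit, then Ki via Cheng-Prusoff. Each kinase at 5 nM with 2 nM Eu-anti-GST antibody and Tracer 178 (DDR1 20 nM, DDR2 10 nM), 1 h, room temperature, HEPES pH 7.5 buffer.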

DDR1 [2] = biological target: T1, DDR1; test: DDR1 cell based assay (PathHunter U2OS DDR1 assay); set-up: host or cells: U2OS-DDR1 (PathHunter); details: U2OS-DDR1 cells, bovine Type II Collagen 20 μg/ml
How it was run: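 Receptor activation measured by enzyme-fragment complementation luminescence in engineered U2OS cells. Compound added 30 min before overnight challenge with 20 μg/ml bovine collagen II; data scaled between vehicle and collagen-stimulated controls, IC50 derived by four-parameter variable-slope fitting.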

DDR2 = biological target: T2, DDR2 (Homo sapiens, UniProt Q16832); test: DDR2 binding assay (LanthaScreen Europium Kinase Binding assay); set-up: purchased Life Technologies; details: binding assay, 5 nM DDR2, 10 nM Kinase Tracer 178; Ki from IC50 by Cheng-Prusoff; read-out: Ki DDR2
T2 sequence (Q16832 22-855): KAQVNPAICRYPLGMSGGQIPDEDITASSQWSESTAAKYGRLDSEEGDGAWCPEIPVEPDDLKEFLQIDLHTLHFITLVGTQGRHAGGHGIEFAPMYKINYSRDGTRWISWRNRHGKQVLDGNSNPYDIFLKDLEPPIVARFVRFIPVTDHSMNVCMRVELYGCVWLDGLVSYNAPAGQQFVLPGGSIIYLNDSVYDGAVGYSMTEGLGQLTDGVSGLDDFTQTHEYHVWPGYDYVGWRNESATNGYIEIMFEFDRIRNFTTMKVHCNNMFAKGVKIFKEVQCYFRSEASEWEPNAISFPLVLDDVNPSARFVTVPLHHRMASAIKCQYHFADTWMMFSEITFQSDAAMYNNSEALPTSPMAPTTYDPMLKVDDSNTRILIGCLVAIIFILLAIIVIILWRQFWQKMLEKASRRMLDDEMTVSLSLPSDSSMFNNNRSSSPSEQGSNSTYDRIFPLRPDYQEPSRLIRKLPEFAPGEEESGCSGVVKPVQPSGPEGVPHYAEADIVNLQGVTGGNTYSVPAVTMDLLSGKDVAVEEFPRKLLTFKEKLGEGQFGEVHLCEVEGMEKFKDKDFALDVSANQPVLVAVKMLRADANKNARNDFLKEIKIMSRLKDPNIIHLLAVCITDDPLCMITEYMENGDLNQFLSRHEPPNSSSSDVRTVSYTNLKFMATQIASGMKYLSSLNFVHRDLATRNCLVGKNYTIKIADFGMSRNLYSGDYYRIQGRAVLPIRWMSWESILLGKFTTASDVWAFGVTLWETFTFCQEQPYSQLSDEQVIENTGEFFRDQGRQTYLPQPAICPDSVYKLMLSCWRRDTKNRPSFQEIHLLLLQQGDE
How it was run: as §1

T1 sequence (Q08345 19-913): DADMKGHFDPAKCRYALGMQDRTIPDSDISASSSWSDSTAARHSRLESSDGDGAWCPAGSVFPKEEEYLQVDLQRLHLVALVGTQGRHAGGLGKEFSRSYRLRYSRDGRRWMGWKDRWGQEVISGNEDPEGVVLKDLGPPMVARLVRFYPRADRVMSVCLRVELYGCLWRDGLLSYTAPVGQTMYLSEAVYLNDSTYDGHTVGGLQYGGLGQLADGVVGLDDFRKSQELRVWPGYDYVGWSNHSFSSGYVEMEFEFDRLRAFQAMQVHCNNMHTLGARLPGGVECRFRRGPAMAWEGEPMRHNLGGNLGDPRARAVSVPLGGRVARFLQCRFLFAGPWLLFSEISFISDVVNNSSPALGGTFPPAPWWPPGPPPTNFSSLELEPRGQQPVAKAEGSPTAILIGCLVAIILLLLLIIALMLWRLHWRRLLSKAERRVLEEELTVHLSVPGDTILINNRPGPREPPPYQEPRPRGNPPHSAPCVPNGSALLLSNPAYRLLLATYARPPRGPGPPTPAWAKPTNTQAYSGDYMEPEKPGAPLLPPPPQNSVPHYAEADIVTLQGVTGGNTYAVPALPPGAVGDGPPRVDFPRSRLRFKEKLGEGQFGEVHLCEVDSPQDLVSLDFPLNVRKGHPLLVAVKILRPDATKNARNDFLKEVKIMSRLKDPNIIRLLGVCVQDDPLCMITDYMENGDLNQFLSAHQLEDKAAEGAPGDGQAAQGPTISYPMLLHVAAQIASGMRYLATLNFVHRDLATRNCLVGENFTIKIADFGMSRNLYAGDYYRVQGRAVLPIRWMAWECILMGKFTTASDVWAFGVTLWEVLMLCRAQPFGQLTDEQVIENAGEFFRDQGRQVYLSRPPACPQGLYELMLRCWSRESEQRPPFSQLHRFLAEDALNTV

SMILES	Ki (DDR1 [1])	IC50 (DDR1 [2])	Ki (DDR2)
O=C(Nc1ccnc(C(F)(F)F)c1)c1csc2c1CCN(C(=O)c1cnc3ccccn13)C2 [Example 17, 6-(imidazo[1,2-a]pyridine-3-carbonyl)-N-(2-(trifluoromethyl)pyridin-4-yl)-4,5,6,7-tetrahydrothieno[2,3-c]pyridine-3-carboxamide]	< 25 nM	25 to 50 nM	< 25 nM
O=C(Nc1cc(CN2CCC23COC3)cc(C(F)(F)F)c1)c1csc2c1CCN(C(=O)c1cnc3ccccn13)C2 [Example 49, N-(3-((6-oxa-1-azaspiro[3.3]heptan-1-yl)methyl)-5-(trifluoromethyl)phenyl)-6-(imidazo[1,2-a]pyridine-3-carbonyl)-4,5,6,7-tetrahydrothieno[2,3-c]pyridine-3-carboxamide]	< 25 nM	< 25 nM	< 25 nM
CC(C)(C)c1cc(NC(=O)c2csc3c2CCN(C(=O)c2cnc4ccccn24)C3)n(-c2ccccc2)n1 [Example 6, N-(3-(tert-butyl)-1-phenyl-1H-pyrazol-5-yl)-6-(imidazo[1,2-a]pyridine-3-carbonyl)-4,5,6,7-tetrahydrothieno[2,3-c]pyridine-3-carboxamide]	< 25 nM	25 to 50 nM	< 25 nM
O=C(Nc1cccc(C(F)(F)F)c1)c1csc2c1CCN(C(=O)c1cnc3ccc(OCCO)cn13)C2 [Example 137, 6-(6-(2-hydroxyethoxy)imidazo[1,2-a]pyridine-3-carbonyl)-N-(3-(trifluoromethyl)phenyl)-4,5,6,7-tetrahydrothieno[2,3-c]pyridine-3-carboxamide]	< 25 nM	< 25 nM	< 25 nM
COc1ncc(NC(=O)c2csc3c2CCN(C(=O)c2cnn4ccncc24)C3)cc1C(F)(F)F [Example 121, N-(6-methoxy-5-(trifluoromethyl)pyridin-3-yl)-6-(pyrazolo[1,5-a]pyrazine-3-carbonyl)-4,5,6,7-tetrahydrothieno[2,3-c]pyridine-3-carboxamide]	< 25 nM	50 to 80 nM	< 25 nM
O=C(Nc1cc(CN2CC3CC2CO3)cc(C(F)(F)F)c1)c1csc2c1CCN(C(=O)c1cnc3ccccn13)C2 (stereo not drawn) [Example 50, N-(3-((2-oxa-5-azabicyclo[2.2.1]heptan-5-yl)methyl)-5-(trifluoromethyl)phenyl)-6-(imidazo[1,2-a]pyridine-3-carbonyl)-4,5,6,7-tetrahydrothieno[2,3-c]pyridine-3-carboxamide]	< 25 nM	25 to 50 nM	< 25 nM
CN(C)[C@@H]1CCN(Cc2cc(NC(=O)c3csc4c3CCN(Cc3cnc5cnccn35)C4)cc(C(F)(F)F)c2)C1 [Example 160, (R)-N-(3-((3-(dimethylamino)pyrrolidin-1-yl)methyl)-5-(trifluoromethyl)phenyl)-6-(imidazo[1,2-a]pyrazin-3-ylmethyl)-4,5,6,7-tetrahydrothieno[2,3-c]pyridine-3-carboxamide]	< 25 nM	50 to 80 nM	< 25 nM
CN(C)CC1CCN(Cc2cc(NC(=O)c3csc4c3CCN(C(=O)c3cnc5ccccn35)C4)cc(C(F)(F)F)c2)C1 (stereo not drawn) [Example 55, N-(3-((3-((dimethylamino)methyl)pyrrolidin-1-yl)methyl)-5-(trifluoromethyl)phenyl)-6-(imidazo[1,2-a]pyridine-3-carbonyl)-4,5,6,7-tetrahydrothieno[2,3-c]pyridine-3-carboxamide]	< 25 nM	50 to 80 nM	< 25 nM
COCCN(C)Cc1cc(NC(=O)c2csc3c2CCN(C(=O)c2cnc4ccccn24)C3)cc(C(F)(F)F)c1 [Example 61, 6-(imidazo[1,2-a]pyridine-3-carbonyl)-N-(3-(((2-methoxyethyl)(methyl)amino)methyl)-5-(trifluoromethyl)phenyl)-4,5,6,7-tetrahydrothieno[2,3-c]pyridine-3-carboxamide]	< 25 nM	25 to 50 nM	< 25 nM

Other lines, results leading:

Ki (DDR1 [1])	IC50 (DDR1 [2])	Ki (DDR2)	SMILES
< 25 nM	50 to 80 nM	< 25 nM	CN1CC2(C1)CN(c1ccc3ncc(C(=O)N4CCc5c(C(=O)Nc6cccc(C(F)(F)F)c6)csc5C4)n3c1)C2 [Example 166, 6-(6-(6-methyl-2,6-diazaspiro[3.3]heptan-2-yl)imidazo[1,2-a]pyridine-3-carbonyl)-N-(3-(trifluoromethyl)phenyl)-4,5,6,7-tetrahydrothieno[2,3-c]pyridine-3-carboxamide]
< 25 nM	25 to 50 nM	< 25 nM	O=C(Nc1cc(N2CCOCC2)cc(C(F)(F)F)c1)c1csc2c1CCN(C(=O)c1cnc3ccccn13)C2 [Example 181, 6-(imidazo[1,2-a]pyridine-3-carbonyl)-N-(3-morpholino-5-(trifluoromethyl)phenyl)-4,5,6,7-tetrahydrothieno [2,3-c]pyridine-3-carboxamide]
< 25 nM	50 to 80 nM	< 25 nM	O=C(Nc1cncc(C(F)(F)F)c1)c1csc2c1CCN(Cc1cnn3ccncc13)C2 [Example 154, 6-(pyrazolo[1,5-a]pyrazin-3-ylmethyl)-N-(5-(trifluoromethyl)pyridin-3-yl)-4,5,6,7-tetrahydrothieno[2,3-c]pyridine-3-carboxamide]
< 25 nM	25 to 50 nM	< 25 nM	O=C(Nc1cccc(C(F)(F)F)c1)c1csc2c1CCN(C(=O)c1cnc3cc(OCCN4CCOCC4)ccn13)C2 [Example 139, 6-(7-(2-morpholinoethoxy)imidazo[1,2-a]pyridine-3-carbonyl)-N-(3-(trifluoromethyl)phenyl)-4,5,6,7-tetrahydrothieno[2,3-c]pyridine-3-carboxamide]
< 25 nM	< 25 nM	< 25 nM	O=C(Nc1cccc(C(F)(F)F)c1)c1csc2c1CCN(C(=O)c1cnc3cccnn13)C2 [Example 92, 6-(imidazo[1,2-b]pyridazine-3-carbonyl)-N-(3-(trifluoromethyl)phenyl)-4,5,6,7-tetrahydrothieno[2,3-c]pyridine-3-carboxamide]
< 25 nM	50 to 80 nM	< 25 nM	CC1Cc2c(C(=O)Nc3cccc(C(F)(F)F)c3)csc2CN1Cc1cnc2cnccn12 (single isomer, unassigned) [Example 105, 6-(imidazo[1,2-a]pyrazin-3-ylmethyl)-5-methyl-N-(3-(trifluoromethyl)phenyl)-4,5,6,7-tetrahydrothieno[2,3-c]pyridine-3-carboxamide]
< 25 nM	50 to 80 nM	25 to 50 nM	Cc1ccc(-n2nc(C(C)(C)C)cc2NC(=O)c2csc3c2CCN(Cc2ccnc4[nH]ccc24)C3)cc1 [Example 76, 6-((1H-pyrrolo[2,3-b]pyridin-4-yl)methyl)-N-(3-(tert-butyl)-1-(p-tolyl)-1H-pyrazol-5-yl)-4,5,6,7-tetrahydrothieno[2,3-c]pyridine-3-carboxamide]
< 25 nM	< 25 nM	< 25 nM	O=C(Nc1cccc(C(F)(F)F)c1)c1csc2c1CCN(C(=O)c1cnc3n1CCOC3)C2 [Example 96, 6-(5,6-dihydro-8H-imidazo[2,1-c][1,4]oxazine-3-carbonyl)-N-(3-(trifluoromethyl)phenyl)-4,5,6,7-tetrahydrothieno[2,3-c]pyridine-3-carboxamide]
< 25 nM	25 to 50 nM	< 25 nM	CC(C)(C)c1cc(NC(=O)c2csc3c2CCN(C(=O)c2cnc4ccccn24)C3)n(CC(F)(F)F)n1 [Example 40, N-(3-(tert-butyl)-1-(2,2,2-trifluoroethyl)-1H-pyrazol-5-yl)-6-(imidazo[1,2-a]pyridine-3-carbonyl)-4,5,6,7-tetrahydrothieno[2,3-c]pyridine-3-carboxamide]
< 25 nM	< 25 nM	< 25 nM	O=C(Nc1cncc(C(F)(F)F)c1)c1csc2c1CCN(C(=O)c1cnc3cc(F)ccn13)C2 [Example 144, 6-(7-fluoroimidazo[1,2-a]pyridine-3-carbonyl)-N-(5-(trifluoromethyl)pyridin-3-yl)-4,5,6,7-tetrahydrothieno[2,3-c]pyridine-3-carboxamide]
